IC50 and half-life data for one compound are collected here from publication PMC10928712, “High Target Homology Does Not Guarantee Inhibition: Aminothiazoles Emerge as Inhibitors of Plasmodium falciparum” (ACS Infectious Diseases, 2024).

For one data set, the system named is P. falciparum 3D7-TPK+. The data set is described as follows: Growth inhibition of PfTPK overexpressing parasites (3D7-TPK+). Conditions: Plasmodium falciparum, 3D7, read-out: PfTPK IC50. The class given is cell-based. On the procedure: P. falciparum cultures were treated as described in method I. For target specification toward PfTPK and PfDXPS, compounds were tested in comparison against overexpressing cell lines and the respective MOCK line containing only the transfected vector backbone. Parasite viability/proliferation was determined. Analysis of the IC50 values and interpretation of the curves was performed, as described in Section 4.1.2.44.
eq 1: Fluorescence data normalization [drawing 2] where y is the fluorescence signal in each well, yminimum is the background fluorescence, and ymaximum is the highest measured fluorescence signal in the untreated wells. Drug concentrations (in μM) were transformed to the log(10)of the values. Means of each independent experiment were plotted as individual values, and the SD of the mean from the means shown as error bars. […] In case of transgenic cell lines, the built-in comparison Akaike’s information criteria (AICc) method was applied to the Log IC50s of the different cell lines. The test calculates a percentage probability of the simpler model “Log IC50 is the same for datasets” being correct. The test for homoscedasticity was performed to confirm if no weighting of values was appropriate.

In data set [1] the test system is P. falciparum 3D7 MOCK cell line. The data set is described as follows: Growth inhibition of MOCK cell line (vector backbone only). It is filed as cell-based. Conditions: Plasmodium falciparum, 3D7, read-out: MOCK IC50, MOCK compared with 3D7-TPK+; single measurement; 95% CI in brackets. An excerpt: The open reading frame (ORF) encoding 1-deoxy-D-xylulose-5-phosphate synthase (PfDXPS; PF3D7_1337200) was amplified from genomic DNA isolated from unsynchronized P. falciparum 3D7 cultures using the Platinum PCR SuperMix High Fidelity (Invitrogen). Forward and reverse primers contained restriction sites for KpnI and AvrII in sense and antisense orientation, respectively (oligonucleotides pfDXPS-Kpn1-S: […]; pfDXPSmyc-Avr2-AS: […] ). PCR products and the transfection vector pARL1a-hDHFR PfARG-GFP were digested with KpnI and AvrII, purified (Gel extraction Kit and PCR purification kit; Qiagen), and cloned into the transfection vector yielding the construct for overexpression pARL-DXS-strep. XL 10-Gold E. coli ultracompetent cells (Agilent Technologies) were transformed with the generated construct to amplify the plasmid and colonies checked using restriction analysis and sequencing of the plasmid. Bacterial clones carrying the overexpression construct and the empty pARL1a vector (MOCK plasmid) were amplified in overnight cultures, isolated (Plasmid Maxi Kit; QIAGEN), and subsequently used to transfect P. falciparum 3D7 ring-stage parasites, as already described.[59] Briefly, 120 μg of plasmid DNA was centrifuged and air-dried, and the pellet was resuspended in TE buffer and cytomix reagent and mixed with the P. falciparum culture. Parasites were transfected using electroporation and selected with WR 99210. The generation and characterization of the PfTPK overexpression cell line has been reported before.[60]
P. falciparum cultures were treated as described in method I. For target specification toward PfTPK and PfDXPS, compounds were tested in comparison against overexpressing cell lines and the respective MOCK line containing only the transfected vector backbone. Parasite viability/proliferation was determined.

Data set [2] is described as follows: Metabolic stability in human liver S9 fraction. The class given is in vitro ADME. To be noted: human, pooled liver S9 fraction, 1 μM compound. On the procedure:
For the evaluation of combined phase I and phase II metabolic stability, the compound (1 μM) was incubated with 1 mg/mL pooled liver S9 fraction (XenoTech), 2 mM NADPH, 1 mM UDPGA, 10 mM MgCl2, 5 mM GSH, and 0.1 mM PAPS at 37 °C for 0, 5, 15, 30, and 60 min. The metabolic stabilities of testosterone (1 μM), verapamil (1 μM), and propranolol (1 μM) were determined in parallel to confirm the enzymatic activity of the S9 fraction. The incubation was stopped by precipitation of S9 enzymes with two volumes of cold acetonitrile containing internal standard (150 nM diphenhydramine). Samples were stored on ice for 10 min, and precipitated protein was removed by centrifugation (15 min, 4 °C, 4000 rpm). The concentration of the remaining test compound at the different time points was analyzed by LC-MS/MS (TSQ Quantum Access MAX, Thermo Fisher, Dreieich, Germany) and used to determine half-life (t1/2).

pIC50: −log10 of the molar value.

In general, pIC50 refers to the negative decadic logarithm of the IC50, by convention in mol/L. A word on the half-life: it is the time in which the quantity being followed falls by half. Read a high half-life as slow decline. For the compound `Cc1nc(N)sc1-c1csc(Nc2ccc(C(F)(F)F)cc2)n1` [compound 1], the negative logarithm of the IC50 (pIC50) was 5.75 in the data set with P. falciparum 3D7-TPK+ and 5.93 in data set [1]. Moreover, the half-life at 1 μM in data set [2] was > 4 h.
